In publication PMC9466619, “Anti-cancer and immunomodulatory evaluation of new nicotinamide derivatives as potential VEGFR-2 inhibitors and apoptosis inducers: in vitro and in silico studies” (Journal of Enzyme Inhibition and Medicinal Chemistry, 2022):
Blank lines part the entries; values can stand above or below the molecule they belong to.

Legend:
[1] = system: HCT-116; assay: MTT anti-proliferative assay, HCT-116; format: cell-based; conditions: Homo sapiens, HCT-116 colorectal cancer cells, read-out: Cytotoxicity IC50 HCT-116
Protocol: [Worded in the source for another cell line; this cell line is reported under the same test.] (§1) MTT procedure[41]^,[42] was applied for the determination of the anti-proliferative activity as described in Supplementary data.
(§2) 3- 4.2. Experimental of biological testing
(§3) 4.2.1. In vitro anti-proliferative activity
(§4) The in vitro antiproliferative activities of the synthesized compounds were evaluated against two human tumor cell lines: hepatocellular carcinoma (HepG2) and breast cancer (MCF-7) using MTT assay protocol The commercially available […]
(§5) The tested cell lines were purchased and dropped on the appropriate growth medium. The growth medium was supplemented with […] of streptomycin, 100 units/mL of penicillin and 10% of heat-inactivated fetal bovine serum in a humidified 5% (v/v) CO2 atmosphere at 37 ◦C.
(§6) Then the cells from the two cancer cell lines were seeded at the appropriate densities into 96-well microtiter plates. After incubation for 24 h, the growth medium of each cell was treated with graded concentrations (0.1, 10, 100 and 1000 μM) of the test compounds and incubated for three days. The viability of treated cells was determined using 3-[4,5-dimethylthiazole-2-yl]- 2,5-diphenyltetrazolium bromide (MTT) technique as cells were stained with 5% MTT solution and allowed to break down the dye into colored-insoluble formazan crystals for 4 h. The formazan crystals were dissolved in acidified isopropanol for 30 min with continuous shaking at room temperature. The colorimetric assay was measured and recorded at absorbance of 570 nm. The cell viability was expressed as percentage of control and the concentration that […]
(§7) 100% viability and group treated with a mixture of toxic compounds as 0% viability.
(IC50) were determined for each compound using Graph Pad Prism version 5 software by plotting of log C against % viability.
(§8) 4.2.2. In vitro VEGFR-2 kinase assay
(§9) The synthesized compounds were estimated for their in vitro inhibition on human VEGFR-2 in HepG2 cell line; using ELISA kit. Firstly, a plate was used for the assay […]
nominated as a standard VEGFR-2 inhibitor. Both standard and samples were added to the wells and incubated overnight at 4 ◦C, then washed. The biotinylated antibody was supplemented and further incubated for 1 h at room temperature. The unreacted, […]

[2] = system: HepG-2; assay: MTT anti-proliferative assay, HepG-2; format: cell-based; conditions: Homo sapiens, HepG2, HepG-2 hepatocellular carcinoma cells, read-out: Cytotoxicity IC50 HepG-2
Protocol: as §1, §2, §3, §4, §5, §6, §7
(IC50) were determined for each compound using Graph Pad Prism version 5 software by plotting of log C against % viability. […]

[3] = biological target: T1, human VEGFR-2 (Homo sapiens, UniProt P35968); assay: In vitro VEGFR-2 enzyme inhibition assay (Human VEGFR-2 ELISA kit); format: biochemical
T1 construct: VEGFR-2 in HepG2 cell line; endogenous in cells; host or cells: HepG2
Protocol: as §2
4.2.1. In vitro anti-proliferative activity […]
The tested cell lines were purchased and dropped on the appropriate growth medium. The growth medium was supplemented with […] of streptomycin, 100 units/mL of penicillin and 10% of heat-inactivated fetal bovine serum in a humidified 5% (v/v) CO2 atmosphere at 37 ◦C. […]
as §8, §9
nominated as a standard VEGFR-2 inhibitor. Both standard and samples were added to the wells and incubated overnight at 4 ◦C, then washed. The biotinylated antibody was supplemented and further incubated for 1 h at room temperature. The unreacted, liberated antibody was then washed; followed by addition of HRP-conjugated streptavidin and incubated for 45 min at room temperature. Wells were washed and a TMB substrate solution was added and kept at room temperature for 30 min. Finally, the stop solution was added, and the intensity of the color produced was measured at […]

[4] = system: HCT-116 cells; assay: Cell cycle analysis by PI staining and flow cytometry; format: cell-based, human; conditions: 48 h
Protocol: Numerous anti-proliferative agents produce their effect by either arresting the cell growth at a particular point of the cell cycle or the induction of apoptosis, or by a combined effect. Taking compound 7 as a representative example of the tested compounds, its effect on the cell-cycle arrest of the HCT-116 cells for 48 h was evaluated by flow cytometry assay using the untreated HCT-116 as a control.
Cell cycle analysis was performed using propidium iodide (PI) staining and flow cytometry analysis for compound 7 as described in Supplementary data[44]^,[45]. […]
5% CO2. Cells were washed twice with phosphate buffer saline, then the centrifugation of cell pellets had been completed, followed by preservation with ice-cold 70% ethanol for 15 min. Pellets were collected again and incubated with propidium iodide (PI) staining solution. After incubation for one hour at room temperature, it was analyzed by flowcytometry on an FC500 cytometer (Beckman Coulter) and the cell cycle distributions were calculated. […]

[5] = system: HCT-116 cells; assay: Apoptosis assay, FITC-Annexin V/PI flow cytometry; format: cell-based, human; conditions: 15.70 μM, 48 h
Protocol: To determine whether apoptosis induction is involved in the anti-proliferative effects of the synthesised compounds, the apoptosis assay was performed for compound 7 against HCT-116 cells. The cells were incubated with either vehicle or compound 7 at a concentration of 15.70 μM for 48 h and then stained with FITC-Annexin V and propidium iodide (PI). The percentages of apoptotic HCT-116 cells were determined by flow cytometry analysis.
Flow cytometry cell apoptosis analysis was used to investigate the apoptotic effect of compound 7 as described in Supplementary data[46]^,[47]. […]
4.2.4. Flow cytometry analysis for apoptosis
Flow cytometry cell apoptosis analysis was used to investigate the apoptotic […]
AnnexinV-fluorescein isothiocyanate (Annexin V-FITC) is a protein that has high affinity to phosphatidyl serine PS, which can be detected by staining with Annexin V-(FITC) and counter staining with propidium iodide (PI). In such procedure, HepG2 cells were incubated together with the tested compound […] for 24 h. Then, the cells were centrifuged, collected by trypsin, washed with PBS two successive times, and suspended in […] of binding buffer. The double staining Annexin V-FITC […] were added to the cells and incubated in the dark for 5 min at room temperature. The stained cells were analyzed for flow cytometry using FACS caliber flow cytometer and apoptosis detection kit (BD Biosciences, San Jose, CA)

[6] = system: TNF-α; assay: qRT-PCR level of TNF-α in HCT-116 cells; format: cell-based, human; conditions: 24 h, compound 7 at 15.70 µM, compound 10 at […]
Protocol: (§10) Dexamethasone as a universal immunomodulatory drug was used as a reference molecule.
(§11) The effect of compounds 7 and 10 on the expression of TNF-α and IL-6 were determined using qRT-PCR as described in Supplementary data[48–50].
(§12) 4.2.5. Quantitative Real Time Reverse-Transcriptase PCR technique
(§13) The quantity of immunomodulatory proteins (TNF-α and IL-6) in control and compounds 7, 10 (at the IC50 concentration)-treated HepG2 cells was as sessed by qRT-PCR (reference). Total RNA from vehicle -treated control (0.01% DMSO) and […] HepG2 cells were extracted as -per the manufacturer instructi ons (RNeasy mini kit, Qiagen, Germany). After RNA extraction, cDNA was prepared using the Revert Aid First Strand cDNA Synthesis kit (Thermo Scientific, USA). Amplification of target cDNA for apoptosis markers and GAPDH [as a normalization (housekeeping) gene] was done using one-step RT-PCR SYBR® Green kit Master Mix (Bio‐Rad
(§14) Laboratories, USA) on Rotor -Gene Q real-time PCR thermal cycler instrument. cDNA (2 μl aliquots) was mixed with 1 μl of forward primer, 1 μl re verse primer, 10 μl master mixture, and the reaction volume was completed to 20 μl with nuclease -free water. All experiments were performed in tri plicates
(§15) 4- 4.3. Experimental of in silico studies

[7] = system: IL-6; assay: qRT-PCR level of IL-6 in HCT-116 cells; format: cell-based, human; conditions: 24 h, compound 7 at 15.70 µM, compound 10 at […]
Protocol: as §10, §11, §12, §13, §14, §15

T1 sequence (P35968 20-1356): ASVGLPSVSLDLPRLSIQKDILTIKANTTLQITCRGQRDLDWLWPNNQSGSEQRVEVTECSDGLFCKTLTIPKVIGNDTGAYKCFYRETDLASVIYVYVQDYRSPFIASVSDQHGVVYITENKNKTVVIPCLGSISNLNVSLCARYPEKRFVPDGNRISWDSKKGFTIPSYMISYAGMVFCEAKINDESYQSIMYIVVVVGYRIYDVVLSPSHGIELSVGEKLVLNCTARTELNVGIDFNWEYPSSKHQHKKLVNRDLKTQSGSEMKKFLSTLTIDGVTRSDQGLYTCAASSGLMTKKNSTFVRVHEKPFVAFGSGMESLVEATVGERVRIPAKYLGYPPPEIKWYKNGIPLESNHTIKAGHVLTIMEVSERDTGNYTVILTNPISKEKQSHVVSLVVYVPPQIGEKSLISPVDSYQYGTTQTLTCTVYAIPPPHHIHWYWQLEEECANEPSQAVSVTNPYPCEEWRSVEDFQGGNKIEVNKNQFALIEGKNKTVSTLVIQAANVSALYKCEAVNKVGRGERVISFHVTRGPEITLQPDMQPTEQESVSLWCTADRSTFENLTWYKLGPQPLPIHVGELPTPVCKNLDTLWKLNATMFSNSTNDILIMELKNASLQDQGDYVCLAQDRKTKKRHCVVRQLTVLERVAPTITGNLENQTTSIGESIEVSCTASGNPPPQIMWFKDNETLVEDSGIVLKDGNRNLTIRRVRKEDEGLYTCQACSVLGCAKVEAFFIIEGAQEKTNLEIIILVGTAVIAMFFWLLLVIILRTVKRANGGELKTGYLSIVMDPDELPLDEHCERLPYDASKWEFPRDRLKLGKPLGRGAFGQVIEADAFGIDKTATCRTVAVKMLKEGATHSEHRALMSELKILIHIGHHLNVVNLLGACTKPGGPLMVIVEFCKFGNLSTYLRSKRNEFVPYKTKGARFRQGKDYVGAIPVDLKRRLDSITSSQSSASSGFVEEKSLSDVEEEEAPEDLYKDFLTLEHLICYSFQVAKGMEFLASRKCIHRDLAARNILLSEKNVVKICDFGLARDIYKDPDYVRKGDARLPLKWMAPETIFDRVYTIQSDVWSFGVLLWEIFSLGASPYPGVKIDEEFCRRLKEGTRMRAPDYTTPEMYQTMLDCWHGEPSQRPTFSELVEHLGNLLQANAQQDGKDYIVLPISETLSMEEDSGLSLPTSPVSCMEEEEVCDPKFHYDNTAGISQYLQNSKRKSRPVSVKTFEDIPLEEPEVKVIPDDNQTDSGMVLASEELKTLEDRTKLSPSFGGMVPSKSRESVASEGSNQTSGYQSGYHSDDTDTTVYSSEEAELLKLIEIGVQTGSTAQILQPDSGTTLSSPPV

SMILES: C/C(=N\NC(=O)c1ccccc1Cl)c1ccc(NC(=O)c2cccnc2)cc1 [Compound 10]
IC50 [3]: 0.145 µM

SMILES: C[C@@H]1C[C@H]2[C@@H]3CCC4=CC(=O)C=C[C@]4(C)[C@@]3(F)[C@@H](O)C[C@]2(C)[C@@]1(O)C(=O)CO [Dexamethasone, reference compound]
TNF-α (% inhibition) [6]: 82.47%
TNF-α (% inhibition) ([6]; listed as dexamethasone): 82.4%
IL-6 (% inhibition) [7]: 93.15%
IL-6 (% inhibition) ([7]; listed as dexamethasone): 93.1%

SMILES: CNC(=O)c1cc(Oc2ccc(NC(=O)Nc3ccc(Cl)c(C(F)(F)F)c3)cc2)ccn1 [Sorafenib, reference compound]
IC50 [1]: 9.3 ± 0.201 µM
IC50 [2]: 7.4 ± 0.253 µM

The next lines start with results.

IC50 [3]: 0.292 µM
SMILES: O=C(N/N=C/c1cccc([N+](=O)[O-])c1)c1ccc(NC(=O)c2cccnc2)cc1 [Compound 6, (E)-N-(4–(2-(3-Nitrobenzylidene)hydrazine-1-carbonyl)phenyl)nicotinamide]
IC50 [1]: 22.09 ± 0.064 µM
IC50 [2]: 19.5 ± 0.063 µM

IC50 [3]: 0.25 µM
SMILES: COc1cc(/C=N/NC(=O)c2ccc(NC(=O)c3cccnc3)cc2)cc(OC)c1OC [Compound 7, (E)-N-(4–(2-(3,4,5-Trimethoxybenzylidene)hydrazine-1-carbonyl)phenyl) nicotinamide]
IC50 [1]: 15.7 ± 0.058 µM
IC50 [2]: 15.5 ± 0.055 µM
Cell cycle distribution (%) % S [4]: 26.92%
Cell cycle distribution (%) %G0-G1 [4]: 41.92%
Cell cycle distribution (%) %G2-M [4]: 31.16%
Cell cycle distribution (%) %Pre-G1 [4]: 15.74%
Apoptosis Early [5]: 2.75%
Apoptosis Late [5]: 11.26%
Apoptosis Total [5]: 15.74%
Increase in early-phase apoptotic cells versus control [5]: 4 fold
Increase in late-phase apoptotic cells versus control [5]: 6.5 folds
Necrosis [5]: 1.73%
Total apoptosis induction versus control [5]: 5 folds

IC50 [3]: 0.0866 µM
SMILES: CC(=O)Nc1ccc(C(=O)N/N=C(\C)c2ccc(NC(=O)c3cccnc3)cc2)cc1 [Compound 11, (E)-N-(4–(1-(2–(4-Acetamidobenzoyl)hydrazono)ethyl)phenyl)nicotinamide]
IC50 [1]: 20.17 ± 0.063 µM
IC50 [2]: 21.6 ± 0.07 µM
